Assay: method code SF, from PMID: 1610484
Settings: for logD: pH 7.4

Row | logP | logD | Compound
1 | 0.26 | – | CSCCCNC(=O)Cn1cnc([N+](=O)[O-])n1
2 | -1.37 | – | O=C(Cn1cnc([N+](=O)[O-])n1)NCCO
3 | -0.07 | – | CSCCNC(=O)CCn1cnc([N+](=O)[O-])n1
4 | – | -0.77 | COCCNC(=O)Cn1cnc([N+](=O)[O-])n1
5 | -0.65 | – | COCCNC(=O)CCn1cnc([N+](=O)[O-])n1
6 | -0.1 | – | CSCCNC(=O)Cn1cnc([N+](=O)[O-])n1
7 | 0.76 | – | CSCCCNC(=O)C(F)(F)Cn1cnc([N+](=O)[O-])n1
8 | 0.4 | – | CSCCNC(=O)C(F)(F)Cn1cnc([N+](=O)[O-])n1

Further lines, the compound ahead of its results:

Row | Compound | logP | logD
9 | COCCNC(=S)Cn1cnc([N+](=O)[O-])n1 | 0.25 | –
10 | COCCNC(=O)C(F)(F)Cn1cnc([N+](=O)[O-])n1 | -0.29 | –
11 | O=C(NCCCO)C(F)(F)Cn1cnc([N+](=O)[O-])n1 | -0.63 | –
12 | COCCCNC(=O)Cn1cnc([N+](=O)[O-])n1 | – | -0.51
13 | COCCCNC(=O)C(F)(F)Cn1cnc([N+](=O)[O-])n1 | 0.01 | –
14 | COCCCNC(=S)Cn1cnc([N+](=O)[O-])n1 | 0.63 | –

From the SangsterLogP compilation
